Measured values published in patent US10696947B2, “Culture medium composition for maturating cardiomyocytes derived from pluripotent mammalian stem cells” (Ncardia B.V., priority 2013, dated 2020).
Entries after “also recorded” stand apart in the source; their conditions may differ.

Columns and labels:
Format in all cases: cell-based
[1] = test system: foetal-like (immature) cardiomyocytes derived from human pluripotent embryonic stem cells (PESCs); test: Morphological features by alpha-actinin immunofluorescence; conditions: 100 ng/ml T3 in culture medium composition, 5 days, compared to medium lacking T3
Protocol: Foetal-like (immature) cardiomyocytes derived from PESC in in vitro culture were divided in two experimental groups. The first group was exposed to a culture medium composition as taught herein but which lacked T3 (control situation). The second group was exposed to a culture medium composition as taught herein but which comprised T3 (100 ng/ml). Both groups were incubated in their respective culture medium composition for 5 days, At the term of the treatment, cardiomyocytes from both experimental groups were fixed in 4% paraformaldehyde, permeabilised with phosphate buffer saline (PBS)/0.1% Triton X-100 (Sigma-Aldrich), and blocked with phosphate buffer saline (PBS)/0.1% Triton X-100 (Sigma-Aldrich) 1% BSA. Samples were incubated 1-hour at room temperature with a primary antibodies specific for the following: alpha-actinin (Eptomics Ab 68167) (at a concentration of 1/400), The primary antibody was detected with either Cy3- or Alexa-Fluor 647-conjugated secondary antibodies (at a concentration of 1/250). Images were captured using either a Leica SP5-STED or a Leica SP5 confocal laser-scanning microscope (Leica Microsystems).

[2] = test system: foetal-like (immature) cardiomyocytes derived from human pluripotent embryonic stem cells (PESCs); test: Electrophysiological properties by perforated patch clamp; conditions: 100 ng/ml T3 in culture medium, 12 days, compared to medium lacking T3
Protocol: Foetal-like (immature) cardiomyocytes derived from PESC in in vitro culture were divided in two experimental groups. The first group was exposed to a culture medium composition as taught herein but which lacked T3 (control situation). The second group was exposed to a culture medium composition as taught herein but which comprised T3 (100 ng/ml). Both groups were incubated in their respective culture medium composition for 12 days. At the term of the treatment, foetal-like (immature) cardiomyocytes from both experimental groups were subjected to a patch clamp procedure.
Patch clamp electrophysiology was performed as described by Bellin, M. et al. EMBO J 32, 3161-3175 (2013)). using minor modifications. Action potentials from small groups of cells (5-10 cells) were measured with the perforated patch clamp technique using an Axopatch 200b amplifier (Molecular Devices) and low resistance patch pipettes (1.5-2.5 MΩ). Data acquisition and analyses of action potentials were performed with pClamp 10 (axon instruments) and custom made software. Action Potentials were corrected for the calculated liquid junction potential (−15 mV).
Action potentials from spontaneous beating cells were measured at […] using a modified Tyrode's solution containing (in mM): 140 NaCl, 5.4 KCl, 1.8 CaCl2, 1.0 MgCl2, 5.5 glucose, 5.0 HEPES; pH7.2 (NaOH). The pipette solution contained (in mM): 125 K-gluconate, 20 KCl, 5 NaCl, 0.22 amphotericin-B, 10 HEPES; pH 7.2 (KOH). The resting membrane potential (RMP), maximal upstroke velocity (dV/dt max), AP amplitude in mV (APA), and AP duration in milli-seconds (APD) at 20, 50 and 90% repolarization (APD50, and APD90, respectively) were analyzed. Upstroke velocity was calculated from the first derivative of the change in voltage as a function of time. Thus the maximum upstroke velocity (dV/dt max) is equal to the maximum positive value of the first derivative of the action potential. Data from 10 consecutive action potentials were averaged.

[3] = test system: foetal-like (immature) cardiomyocytes derived from PESC; test: Metabolic profile by TMRM assay (flow cytometry); conditions: 100 ng/ml T3 in culture medium, 17 days, 5 nM TMRM, compared to medium lacking T3
Protocol: Foetal-like (immature) cardiomyocytes derived from PESC in in vitro culture were divided in two experimental groups. The first group was exposed to a culture medium composition as taught herein but which lacked T3 (control situation). The second group was exposed to a culture medium composition as taught herein but which comprised T3 (100 ng/ml). Both groups were incubated in their respective culture medium composition for 17 days. An amount of 5 nM TMRM (Invitrogen) was added in the respective media the day before measurement. Cells were dissociated using 5× Tryple, but with TMRM included in all solutions and also present during measurement, Measurements were performed on a Miltenyi MACSquant VYB flow cytometer.

In the case of N[C@@H](Cc1cc(I)c(Oc2ccc(O)c(I)c2)c(I)c1)C(=O)O [T3, triiodothyronine], the “morphological features (maturation into adult-like cardiomyocytes)” value [1] is reported as “polarization of cells, improved sarcomeric organization, and elongated shape”, the “amplitude of the action potential” value [2] is reported as “greater amplitude of the action potential; also recorded: increased amplitude of the action potential” and the “maximal upstroke velocity (dV/dt max)” value [2] is reported as “greater maximal upstroke velocity; also recorded: increased maximum upstroke velocity”. For the same compound, the resting membrane potential [2] was “lower resting membrane potential” and the “mitochondrial activity (TMRM-associated orange fluorescence)” value [3] was “enhanced mitochondrial activity; also recorded: increased mitochondrial activity”.
